Experimental data as given in US10526327B2, “Histone demethylase inhibitors” (CELGENE QUANTICEL RESEARCH, INC., priority 2013, dated 2020).

Biological target: T1, Jarid1A (Homo sapiens, UniProt P29375)
T1 construct: purchased BPS Bioscience 50110
T1 sequence (P29375 1-1090): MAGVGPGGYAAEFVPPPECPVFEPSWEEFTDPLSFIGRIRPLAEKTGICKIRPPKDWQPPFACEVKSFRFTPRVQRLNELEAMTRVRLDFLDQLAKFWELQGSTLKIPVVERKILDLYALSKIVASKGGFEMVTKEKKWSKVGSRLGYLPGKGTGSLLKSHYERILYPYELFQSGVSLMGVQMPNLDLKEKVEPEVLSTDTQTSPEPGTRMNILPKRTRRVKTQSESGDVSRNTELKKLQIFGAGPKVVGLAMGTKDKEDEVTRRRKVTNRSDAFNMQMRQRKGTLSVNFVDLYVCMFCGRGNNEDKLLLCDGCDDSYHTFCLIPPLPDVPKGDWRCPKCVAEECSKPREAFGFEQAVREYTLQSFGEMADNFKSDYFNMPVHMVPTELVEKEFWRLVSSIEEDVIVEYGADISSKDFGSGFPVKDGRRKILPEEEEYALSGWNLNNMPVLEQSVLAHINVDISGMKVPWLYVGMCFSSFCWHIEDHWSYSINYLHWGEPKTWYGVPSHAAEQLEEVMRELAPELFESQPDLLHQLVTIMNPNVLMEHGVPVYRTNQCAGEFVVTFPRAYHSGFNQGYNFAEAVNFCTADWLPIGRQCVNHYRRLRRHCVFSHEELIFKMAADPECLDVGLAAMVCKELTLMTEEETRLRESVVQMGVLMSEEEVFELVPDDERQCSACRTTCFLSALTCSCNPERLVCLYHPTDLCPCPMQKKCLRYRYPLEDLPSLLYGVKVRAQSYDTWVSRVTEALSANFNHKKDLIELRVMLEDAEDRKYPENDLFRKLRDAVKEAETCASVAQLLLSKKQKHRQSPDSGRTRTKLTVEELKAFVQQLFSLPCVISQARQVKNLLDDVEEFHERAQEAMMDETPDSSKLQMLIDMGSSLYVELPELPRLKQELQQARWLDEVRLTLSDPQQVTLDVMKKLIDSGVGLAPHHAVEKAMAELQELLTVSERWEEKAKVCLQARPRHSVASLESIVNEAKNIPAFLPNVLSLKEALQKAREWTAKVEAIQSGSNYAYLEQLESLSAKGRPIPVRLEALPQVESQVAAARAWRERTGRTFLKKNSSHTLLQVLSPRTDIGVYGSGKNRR
Experiment: Jarid1A in vitro enzyme inhibition assay (TR-FRET)
Type: biochemical
How it was run: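 Demethylation of 300 nM biotin-H3K4me3 peptide by 1 nM baculovirus-expressed Jarid1A (aa 1–1090) with 2 μM α-ketoglutarate, Fe(II) and ascorbate, pH 7.3, 30 min at room temperature. Stopped with EDTA; H3K4me1-2 product detected by TR-FRET (Eu anti-H3K4me1-2/streptavidin-APC). IC50 fitted from 665/615 ratio over 11-point dilutions.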

| Structure (SMILES) | IC50 |
| --- | --- |
| Oc1nc(Oc2cnn([C@H]3CCN(c4ccc(F)cc4)C3)c2)nc2cnccc12 [Example 146, 2-({1-[(3S)-1-(4-fluorophenyl)pyrrolidin-3-yl]-1H-pyrazol-4-yl}oxy)pyrido[3,4-d]pyrimidin-4-ol] | ≤ 100 nM |
| O=C(C1CC1)N1CC[C@@H](n2cc(Oc3nc(O)c4ccncc4n3)cn2)C1 [Example 131, 2-({1-[(3R)-1-cyclopropanecarbonylpyrrolidin-3-yl]-1H-pyrazol-4-yl}oxy)pyrido[3,4-d]pyrimidin-4-ol] | ≤ 100 nM |
| Oc1nc(Oc2cnn([C@H]3CCN(c4ccccc4)C3)c2)nc2cnccc12 [Example 145, 2-({1-[(3S)-1-phenylpyrrolidin-3-yl]-1H-pyrazol-4-yl}oxy)pyrido[3,4-d]pyrimidin-4-ol] | ≤ 100 nM |
| Oc1nc(OCc2cccc(Cl)c2Cl)nc2cnccc12 [Example 173, 2-[(2,3-dichlorophenyl)methoxy]pyrido[3,4-d]pyrimidin-4-ol] | 1000 to 10000 nM |
| Oc1nc(Oc2cnn([C@@H]3CCN(c4ccc(F)cc4)C3)c2)nc2cnccc12 [Example 134, 2-({1-[(3R)-1-(4-fluorophenyl)pyrrolidin-3-yl]-1H-pyrazol-4-yl}oxy)pyrido[3,4-d]pyrimidin-4-ol] | ≤ 100 nM |
| O=S(=O)(c1ccccc1)N1CCC[C@@H](n2cc(Oc3nc(O)c4ccncc4n3)cn2)C1 [Example 152, 2-({1-[(3R)-1-(benzenesulfonyl)piperidin-3-yl]-1H-pyrazol-4-yl}oxy)pyrido[3,4-d]pyrimidin-4-ol] | ≤ 100 nM |
| Oc1nc(OCCCC(F)(F)F)nc2cnccc12 [Example 20, 2-(4,4,4-trifluorobutoxy)pyrido[3,4-d]pyrimidin-4-ol] | ≤ 100 nM |
| Oc1nc(OCc2ccccc2Cl)nc2cnccc12 [Example 171, 2-[(2-chlorophenyl)methoxy]pyrido[3,4-d]pyrimidin-4-ol] | 1000 to 10000 nM |
| Oc1nc(OCCc2ccccc2)nc2cnccc12 [Example 18, 2-(2-phenylethoxy)pyrido[3,4-d]pyrimidin-4-ol] | ≤ 100 nM |
| CCS(=O)(=O)N1CCC[C@@H](n2cc(Oc3nc(O)c4ccncc4n3)cn2)C1 [Example 150, 2-({1-[(3R)-1-(ethanesulfonyl)piperidin-3-yl]-1H-pyrazol-4-yl}oxy)pyrido[3,4-d]pyrimidin-4-ol] | ≤ 100 nM |
| C[C@H](c1ccccc1)n1cc(Oc2nc(O)c3ccncc3n2)cn1 [Example 117, 2-({1-[(1R)-1-phenylethyl]-1H-pyrazol-4-yl}oxy)pyrido[3,4-d]pyrimidin-4-ol] | ≤ 100 nM |
| CCS(=O)(=O)N1CCC[C@H](n2cc(Oc3nc(O)c4ccncc4n3)cn2)C1 [Example 161, 2-({1-[(3S)-1-(ethanesulfonyl)piperidin-3-yl]-1H-pyrazol-4-yl}oxy)pyrido[3,4-d]pyrimidin-4-ol] | ≤ 100 nM |
| O=S(=O)(C1CC1)N1CC[C@H](n2cc(Oc3nc(O)c4ccncc4n3)cn2)C1 [Example 137, 2-({1-[(3S)-1-(cyclopropanesulfonyl)pyrrolidin-3-yl]-1H-pyrazol-4-yl}oxy)pyrido[3,4-d]pyrimidin-4-ol] | ≤ 100 nM |
| CN(C)CCCOc1nc(O)c2ccncc2n1 [Example 21, 2-[3-(dimethylamino)propoxy]pyrido[3,4-d]pyrimidin-4-ol] | 100 to 1000 nM |
| Oc1nc(OCCc2ccc(Cl)c(Cl)c2)nc2cnccc12 [Example 175, 2-[2-(3,4-dichlorophenyl)ethoxy]pyrido[3,4-d]pyrimidin-4-ol] | 1000 to 10000 nM |
| CC(C)COc1nc(O)c2ccncc2n1 [Example 14, 2-(2-methylpropoxy)pyrido[3,4-d]pyrimidin-4-ol] | 100 to 1000 nM |
| C[C@@H](c1ccccc1)n1cc(Oc2nc(O)c3ccncc3n2)cn1 [Example 118, 2-({1-[(1S)-1-phenylethyl]-1H-pyrazol-4-yl}oxypyrido) [3,4-d]pyrimidin-4-ol] | ≤ 100 nM |
| CC(COc1nc(O)c2ccncc2n1)c1ccccc1 (stereo not shown) [Example 17, 2-(2-phenylpropoxy)pyrido[3,4-d]pyrimidin-4-ol] | 100 to 1000 nM |
| O=C(c1ccccc1)N1CC[C@@H](n2cc(Oc3nc(O)c4ccncc4n3)cn2)C1 [Example 132, 2-({1-[(3R)-1-benzoylpyrrolidin-3-yl]-1H-pyrazol-4-yl}oxy)pyrido[3,4-d]pyrimidin-4-ol] | ≤ 100 nM |

| Structure (SMILES) | IC50 |
| --- | --- |
| Oc1nc(OCCC(F)(F)F)nc2cnccc12 [Example 13, 2-(3,3,3-trifluoropropoxy)pyrido[3,4-d]pyrimidin-4-ol] | ≤ 100 nM |
| O=S(=O)(c1ccccc1)N1CC[C@H](n2cc(Oc3nc(O)c4ccncc4n3)cn2)C1 [Example 138, 2-({1-[(3S)-1-(benzenesulfonyl)pyrrolidin-3-yl]-1H-pyrazol-4-yl}oxy)pyrido[3,4-d]pyrimidin-4-ol] | ≤ 100 nM |
| Oc1nc(Oc2cnn([C@@H]3CCNC3)c2)nc2cnccc12 [Example 125, 2-({1-[(3R)-pyrrolidin-3-yl]-1H-pyrazol-4-yl}oxy)pyrido[3,4-d]pyrimidin-4-ol] | ≤ 100 nM |
| O=C(C1CC1)N1CCC[C@@H](n2cc(Oc3nc(O)c4ccncc4n3)cn2)C1 [Example 156, 2-({1-[(3R)-1-cyclopropanecarbonylpiperidin-3-yl]-1H-pyrazol-4-yl}oxy)pyrido[3,4-d]pyrimidin-4-ol] | ≤ 100 nM |
| CCS(=O)(=O)N1CC[C@H](n2cc(Oc3nc(O)c4ccncc4n3)cn2)C1 [Example 136, 2-({1-[(3S)-1-(ethanesulfonyl)pyrrolidin-3-yl]-1H-pyrazol-4-yl}oxy)pyrido[3,4-d]pyrimidin-4-ol] | ≤ 100 nM |
| CCC(C)COc1nc(O)c2ccncc2n1 (stereo not shown) [Example 16, 2-(2-methylbutoxy)pyrido[3,4-d]pyrimidin-4-ol] | 100 to 1000 nM |
| Cn1cnc(-c2nccc3c(O)nc(OCc4ccc(Cl)cc4)nc23)c1 [Example 112, 2-[(4-chlorophenyl)methoxy]-8-(1-methyl-1H-imidazol-4-yl)pyrido[3,4-d]pyrimidin-4-ol] | 100 to 1000 nM |
| Oc1nc(OC(c2ccccc2)C(F)(F)F)nc2cnccc12 (stereo not shown) [Example 176, 2-(2,2,2-trifluoro-1-phenylethoxy)pyrido[3,4-d]pyrimidin-4-ol] | 1000 to 10000 nM |
| O=C(C1CC1)N1CC[C@H](n2cc(Oc3nc(O)c4ccncc4n3)cn2)C1 [Example 141, 2-({1-[(3S)-1-cyclopropanecarbonylpyrrolidin-3-yl]-1H-pyrazol-4-yl}oxy)pyrido[3,4-d]pyrimidin-4-ol] | ≤ 100 nM |
| CC(C)CCOc1nc(O)c2ccncc2n1 [Example 15, 2-(3-methylbutoxy)pyrido[3,4-d]pyrimidin-4-ol] | ≤ 100 nM |
| N#CCC(=O)N1CC[C@@H](n2cc(Oc3nc(O)c4ccncc4n3)cn2)C1 [Example 130, 3-[(3R)-3-[4-({4-hydroxypyrido[3,4-d]pyrimidin-2-yl}oxy)-1H-pyrazol-1-yl]pyrrolidin-1-yl]-3-oxopropanenitrile] | ≤ 100 nM |
| Oc1nc(Oc2cnn(CCN3CCOCC3)c2)nc2cnccc12 [Example 124, 2-({1-[2-(morpholin-4-yl)ethyl]-1H-pyrazol-4-yl}oxy)pyrido[3,4-d]pyrimidin-4-ol] | ≤ 100 nM |
| COCCOc1nc(O)c2ccncc2n1 [Example 22, 2-(2-methoxyethoxy)pyrido[3,4-d]pyrimidin-4-ol] | 100 to 1000 nM |
| Oc1nc(OCc2ccc(C(F)(F)F)cc2)nc2cnccc12 [Example 170, 2-{[4-(trifluoromethyl)phenyl]methoxy}pyrido[3,4-d]pyrimidin-4-ol] | 1000 to 10000 nM |
| Cn1cnc(-c2nccc3c(O)nc(OCc4ccc(C(F)(F)F)cc4)nc23)c1 [Example 111, 8-(1-methyl-1H-imidazol-4-yl)-2-{[4-(trifluoromethyl)phenyl]methoxy}pyrido[3,4-d]pyrimidin-4-ol] | ≤ 100 nM |
| CC(=O)N1CCC[C@H](n2cc(Oc3nc(O)c4ccncc4n3)cn2)C1 [Example 164, 1-[(3S)-3-[4-({4-hydroxypyrido[3,4-d]pyrimidin-2-yl}oxy)-1H-pyrazol-1-yl]piperidin-1-yl]ethan-1-one] | ≤ 100 nM |
| Oc1nc(Oc2cnn([C@H]3CCN(c4ccc(Cl)cc4)C3)c2)nc2cnccc12 [Example 148, 2-({1-[(3S)-1-(4-chlorophenyl)pyrrolidin-3-yl]-1H-pyrazol-4-yl}oxy)pyrido[3,4-d]pyrimidin-4-ol] | ≤ 100 nM |
| Oc1nc(Oc2cnn(C(c3ccccc3)C3CC3)c2)nc2cnccc12 (stereo not shown) [Example 116, 2-({1-[cyclopropyl(phenyl)methyl]-1H-pyrazol-4-yl}oxy)pyrido[3,4-d]pyrimidin-4-ol] | ≤ 100 nM |
